Target: T1, TweCA (TweCAδ) (Conticribra weissflogii, UniProt Q5U9J1)
T1 construct: gene ca1; recombinant, obtained in-house as reported earlier
T1 sequence (Q5U9J1 1-281): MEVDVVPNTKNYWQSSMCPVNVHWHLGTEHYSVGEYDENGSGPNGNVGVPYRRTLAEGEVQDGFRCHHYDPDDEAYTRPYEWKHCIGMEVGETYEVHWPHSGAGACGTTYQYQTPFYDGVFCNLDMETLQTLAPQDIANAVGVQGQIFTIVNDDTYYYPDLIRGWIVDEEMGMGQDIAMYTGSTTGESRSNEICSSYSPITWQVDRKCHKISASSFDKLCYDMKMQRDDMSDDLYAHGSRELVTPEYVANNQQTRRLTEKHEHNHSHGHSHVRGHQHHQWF
Assay: stopped-flow CO2 hydration assay
Assay type: biochemical

Compound	Ki
Oc1c(F)cc(F)cc1F [compound 17, R = 2,4,6-triF]	13.8 µM
Oc1cc(F)ccc1F [compound 15, R = 2,5-diF]	30.7 µM
CC(=O)Nc1ccc(O)cc1 [compound 8, R = 4-NHCOCH3]	7.9 µM
Nc1ccc(O)c(Cl)c1 [compound 14, R = 4-NH2-2-Cl]	> 100 µM
Nc1ccc(O)cc1 [compound 7, R = 4-NH2]	17.6 µM
Oc1cccc(O)c1 [compound 3, R = 3-OH]	48.2 µM
OCc1ccc(O)cc1 [compound 12, R = 4-CH2OH]	35.9 µM
Nc1cc(O)ccc1Cl [compound 13, R = 3-NH2-4-Cl]	> 100 µM
Oc1ccccc1 [compound 1, phenol (R = H)]	52.3 µM
O=C(O)c1ccc(O)cc1 [compound 11, R = 4-COOH]	1.4 µM
N#Cc1ccc(O)cc1 [compound 9, R = 4-CN]	56.9 µM
Nc1cccc(O)c1 [compound 6, R = 3-NH2]	65.4 µM
Oc1ccc(O)cc1 [compound 4, R = 4-OH]	34.9 µM
Oc1cc(F)cc(F)c1 [compound 16, R = 3,5-diF]	21 µM
O=C(O)c1ccccc1O [compound 10, R = 2-COOH]	0.95 µM

Other lines, results leading:

Ki	Compound
5.9 µM	O=C(O)/C=C/c1ccc(O)c(O)c1 [compound 22, R = 2-OH-4-(CHCHCOOH)]
2 µM	Oc1ccc(O)c(O)c1 [compound 5, R = 2,4-diOH]
4.9 µM	O=C(O)c1ccc(O)c(O)c1 [compound 18, R = 4-COOH-2-OH]
0.81 µM	O=C(O)c1cc(O)ccc1O [compound 20, R = 2-COOH-4-OH]
4.5 µM	Oc1ccccc1O [compound 2, R = 2-OH]
2.7 µM	O=C(O)c1c(O)cccc1O [compound 19, R = 2-COOH-3-OH]
14.5 µM	O=C(O)/C=C/c1ccc(O)cc1 [compound 21, R = 4-(CHCHCOOH)]

— PMC6968676, “Inhibition survey with phenolic compounds against the δ- and η-class carbonic anhydrases from the marine diatom thalassiosira weissflogii and protozoan Plasmodium falciparum” (Journal of Enzyme Inhibition and Medicinal Chemistry, 2019)
